Assay results taken from ChEMBL document CHEMBL1136023, “Antifungal Sordarins. Part 4: synthesis and structure--activity relationships of 3',4'-fused alkyl-tetrahydrofuran derivatives” (2002).
≈ marks a conversion by molar mass, not a printed value.

What was measured:
Type in all cases: functional
Aspergillus flavus = assay: Minimal inhibitory effect against the Aspergillus flavus (C1150).
Nakaseomyces glabratus = assay: Minimal inhibitory effect against the Candida glabrata (2375E).
Candida parapsilosis = assay: Minimal inhibitory effect against the Candida parapsilosis (2372E).; settings: Lodderomyces parapsilosis
Candida tropicalis = assay: Minimal inhibitory effect against the Candida tropicalis (2808E).
Candida albicans [1] = assay: Minimal inhibitory effect against the Candida albicans (2005E).
Candida albicans [2] = assay: Minimal inhibitory effect against the Candida albicans (4711E).
Kluyveromyces marxianus = assay: Minimal inhibitory effect against the Candida pseudotropicalis (2371E).
Cryptococcus neoformans = assay: Minimal inhibitory effect against the Cryptococcus neoformans (2867E).

CC(C)C1=CC2CC3(C=O)[C@@H]4CC[C@@H](C)[C@H]4CC2(CO[C@H]2C[C@@H]4OC(C)(C)O[C@@H]4[C@@H](C)O2)C13C(=O)O (stereo partly specified)
MIC (Aspergillus flavus): > 125 µg/mL
MIC (Nakaseomyces glabratus): 31 µg/mL (≈ 61.7 µM)
MIC (Candida parapsilosis): > 125 µg/mL
MIC (Candida tropicalis): 0.12 µg/mL (≈ 0.239 µM)
MIC (Candida albicans [1]): < 1 ng/mL
MIC (Candida albicans [2]): 4 ng/mL (≈ 0.00796 µM)
MIC (Kluyveromyces marxianus): 4 ng/mL (≈ 0.00796 µM)
MIC (Cryptococcus neoformans): 0.12 µg/mL (≈ 0.239 µM)

CC(C)C1=CC2CC3(C=O)[C@@H]4CC[C@@H](C)[C@H]4CC2(CO[C@H]2C[C@H]4[C@H](OCC4(C)C)[C@@H](C)O2)C13C(=O)O (stereo partly specified)
MIC (Aspergillus flavus): > 125 µg/mL
MIC (Nakaseomyces glabratus): 8 µg/mL (≈ 16 µM)
MIC (Candida parapsilosis): > 125 µg/mL
MIC (Candida tropicalis): 0.06 µg/mL (≈ 0.12 µM)
MIC (Candida albicans [1]): < 1 ng/mL
MIC (Candida albicans [2]): < 1 ng/mL
MIC (Kluyveromyces marxianus): < 1 ng/mL
MIC (Cryptococcus neoformans): 4 µg/mL (≈ 7.99 µM)

CC[C@H]1CO[C@H]2[C@@H]1C[C@H](OCC13C[C@@H]4[C@H](C)CC[C@H]4C4(C=O)CC1C=C(C(C)C)C34C(=O)O)O[C@@H]2C (stereo partly specified)
MIC (Aspergillus flavus): 62 µg/mL (≈ 124 µM)
MIC (Nakaseomyces glabratus): 0.5 µg/mL (≈ 0.999 µM)
MIC (Candida parapsilosis): 4 µg/mL (≈ 7.99 µM)
MIC (Candida tropicalis): < 0.001 µg/mL
MIC (Candida albicans [1]): < 1 ng/mL
MIC (Candida albicans [2]): < 1 ng/mL
MIC (Kluyveromyces marxianus): < 1 ng/mL
MIC (Cryptococcus neoformans): < 0.25 µg/mL

CC[C@@H]1CO[C@H]2[C@@H]1C[C@H](OCC13C[C@@H]4[C@H](C)CC[C@H]4C4(C=O)CC1C=C(C(C)C)C34C(=O)O)O[C@@H]2C (stereo partly specified)
MIC (Aspergillus flavus): > 125 µg/mL
MIC (Nakaseomyces glabratus): 4 µg/mL (≈ 7.99 µM)
MIC (Candida parapsilosis): > 125 µg/mL
MIC (Candida tropicalis): < 0.001 µg/mL
MIC (Candida albicans [1]): < 1 ng/mL
MIC (Candida albicans [2]): < 1 ng/mL
MIC (Kluyveromyces marxianus): < 1 ng/mL
MIC (Cryptococcus neoformans): 1 µg/mL (≈ 2 µM)

CC(C)C1=CC2CC3(C=O)[C@@H]4CC[C@@H](C)[C@H]4CC2(CO[C@H]2C[C@@H]4OC[C@@H](C)[C@@H]4[C@@H](C)O2)C13C(=O)O (stereo partly specified)
MIC (Aspergillus flavus): > 125 µg/mL
MIC (Nakaseomyces glabratus): 8 µg/mL (≈ 16.4 µM)
MIC (Candida parapsilosis): > 125 µg/mL
MIC (Candida tropicalis): 0.008 µg/mL (≈ 0.0164 µM)
MIC (Candida albicans [1]): < 1 ng/mL
MIC (Candida albicans [2]): < 1 ng/mL
MIC (Kluyveromyces marxianus): < 1 ng/mL
MIC (Cryptococcus neoformans): 1 µg/mL (≈ 2.05 µM)

CC(C)C1=CC2CC3(C=O)[C@@H]4CC[C@@H](C)[C@H]4CC2(CO[C@H]2C[C@H]4[C@H](OC[C@H]4C(C)C)[C@@H](C)O2)C13C(=O)O (stereo partly specified)
MIC (Aspergillus flavus): > 125 µg/mL
MIC (Nakaseomyces glabratus): 62 µg/mL (≈ 120 µM)
MIC (Candida parapsilosis): > 125 µg/mL
MIC (Candida tropicalis): 2 µg/mL (≈ 3.89 µM)
MIC (Candida albicans [1]): < 1 ng/mL
MIC (Candida albicans [2]): < 1 ng/mL
MIC (Kluyveromyces marxianus): < 1 ng/mL
MIC (Cryptococcus neoformans): 4 µg/mL (≈ 7.77 µM)

CC(C)C1=CC2CC3(C=O)[C@@H]4CC[C@@H](C)[C@H]4CC2(CO[C@H]2C[C@H]4[C@H](OC[C@@H]4C)[C@@H](C)O2)C13C(=O)O (stereo partly specified)
MIC (Aspergillus flavus): 62 µg/mL (≈ 127 µM)
MIC (Nakaseomyces glabratus): 0.5 µg/mL (≈ 1.03 µM)
MIC (Candida parapsilosis): 2 µg/mL (≈ 4.11 µM)
MIC (Candida tropicalis): 0.008 µg/mL (≈ 0.0164 µM)
MIC (Candida albicans [1]): < 1 ng/mL
MIC (Candida albicans [2]): < 1 ng/mL
MIC (Kluyveromyces marxianus): 4 ng/mL (≈ 0.00822 µM)
MIC (Cryptococcus neoformans): 0.25 µg/mL (≈ 0.514 µM)

CC(C)C1=CC2CC3(C=O)[C@@H]4CC[C@@H](C)[C@H]4CC2(CO[C@H]2C[C@H]4[C@H](OC[C@H]4C)[C@@H](C)O2)C13C(=O)O (stereo partly specified)
MIC (Aspergillus flavus): > 125 µg/mL
MIC (Nakaseomyces glabratus): 4 µg/mL (≈ 8.22 µM)
MIC (Candida parapsilosis): > 125 µg/mL
MIC (Candida tropicalis): 0.004 µg/mL (≈ 0.00822 µM)
MIC (Candida albicans [1]): 1 ng/mL (≈ 0.00205 µM)
MIC (Candida albicans [2]): < 1 ng/mL
MIC (Kluyveromyces marxianus): 1 ng/mL (≈ 0.00205 µM)
MIC (Cryptococcus neoformans): 4 µg/mL (≈ 8.22 µM)

CC(C)C1=CC2CC3(C=O)[C@@H]4CC[C@@H](C)[C@H]4CC2(CO[C@H]2C[C@H]4[C@H](OC[C@@H]4C(C)C)[C@@H](C)O2)C13C(=O)O (stereo partly specified)
MIC (Aspergillus flavus): > 125 µg/mL
MIC (Nakaseomyces glabratus): 2 µg/mL (≈ 3.89 µM)
MIC (Candida parapsilosis): 16 µg/mL (≈ 31.1 µM)
MIC (Candida tropicalis): 0.004 µg/mL (≈ 0.00777 µM)
MIC (Candida albicans [1]): < 1 ng/mL
MIC (Candida albicans [2]): < 1 ng/mL
MIC (Kluyveromyces marxianus): < 1 ng/mL
MIC (Cryptococcus neoformans): 0.25 µg/mL (≈ 0.486 µM)

CC(C)C1=CC2CC3(C=O)[C@@H]4CC[C@@H](C)[C@H]4CC2(CO[C@H]2C[C@@H]4OC[C@H](C)[C@@H]4[C@@H](C)O2)C13C(=O)O (stereo partly specified)
MIC (Aspergillus flavus): > 125 µg/mL
MIC (Nakaseomyces glabratus): 16 µg/mL (≈ 32.9 µM)
MIC (Candida parapsilosis): > 125 µg/mL
MIC (Candida tropicalis): 0.03 µg/mL (≈ 0.0616 µM)
MIC (Candida albicans [1]): 1 ng/mL (≈ 0.00205 µM)
MIC (Candida albicans [2]): 4 ng/mL (≈ 0.00822 µM)
MIC (Kluyveromyces marxianus): < 1 ng/mL
MIC (Cryptococcus neoformans): 0.5 µg/mL (≈ 1.03 µM)

CC(C)C1=CC2CC3(C=O)[C@@H]4CC[C@@H](C)[C@H]4CC2(CO[C@@H]2O[C@H](C)[C@H]4OC[C@@H](C)C4[C@@H]2O)C13C(=O)O (single isomer, unassigned)
MIC (Aspergillus flavus): > 125 µg/mL
MIC (Nakaseomyces glabratus): 62 µg/mL (≈ 123 µM)
MIC (Candida parapsilosis): 125 µg/mL (≈ 249 µM)
MIC (Candida tropicalis): 0.5 µg/mL (≈ 0.995 µM)
MIC (Candida albicans [1]): 8 ng/mL (≈ 0.0159 µM)
MIC (Candida albicans [2]): 250 ng/mL (≈ 0.497 µM)
MIC (Kluyveromyces marxianus): 250 ng/mL (≈ 0.497 µM)
MIC (Cryptococcus neoformans): 31 µg/mL (≈ 61.7 µM)

CC[C@@H]1CO[C@H]2C1[C@H](O)[C@H](OCC13C[C@@H]4[C@H](C)CC[C@H]4C4(C=O)CC1C=C(C(C)C)C34C(=O)O)O[C@@H]2C (single isomer, unassigned)
MIC (Aspergillus flavus): > 125 µg/mL
MIC (Nakaseomyces glabratus): 16 µg/mL (≈ 31 µM)
MIC (Candida parapsilosis): 125 µg/mL (≈ 242 µM)
MIC (Candida tropicalis): 0.25 µg/mL (≈ 0.484 µM)
MIC (Candida albicans [1]): 15 ng/mL (≈ 0.029 µM)
MIC (Candida albicans [2]): 120 ng/mL (≈ 0.232 µM)
MIC (Kluyveromyces marxianus): 60 ng/mL (≈ 0.116 µM)
MIC (Cryptococcus neoformans): < 0.25 µg/mL

CC[C@H]1CO[C@H]2C1[C@H](O)[C@H](OCC13C[C@@H]4[C@H](C)CC[C@H]4C4(C=O)CC1C=C(C(C)C)C34C(=O)O)O[C@@H]2C (single isomer, unassigned)
MIC (Aspergillus flavus): > 125 µg/mL
MIC (Nakaseomyces glabratus): 8 µg/mL (≈ 15.5 µM)
MIC (Candida parapsilosis): 125 µg/mL (≈ 242 µM)
MIC (Candida tropicalis): 0.5 µg/mL (≈ 0.968 µM)
MIC (Candida albicans [1]): 30 ng/mL (≈ 0.0581 µM)
MIC (Candida albicans [2]): 120 ng/mL (≈ 0.232 µM)
MIC (Kluyveromyces marxianus): 60 ng/mL (≈ 0.116 µM)
MIC (Cryptococcus neoformans): < 0.25 µg/mL

CC(C)C1=CC2CC3(C=O)[C@@H]4CC[C@@H](C)[C@H]4CC2(CO[C@@H]2O[C@H](C)[C@H]4OC[C@H](C)C4[C@@H]2O)C13C(=O)O (single isomer, unassigned)
MIC (Aspergillus flavus): > 125 µg/mL
MIC (Nakaseomyces glabratus): 31 µg/mL (≈ 61.7 µM)
MIC (Candida parapsilosis): 125 µg/mL (≈ 249 µM)
MIC (Candida tropicalis): 2 µg/mL (≈ 3.98 µM)
MIC (Candida albicans [1]): 500 ng/mL (≈ 0.995 µM)
MIC (Candida albicans [2]): 1000 ng/mL (≈ 1.99 µM)
MIC (Kluyveromyces marxianus): 1000 ng/mL (≈ 1.99 µM)
MIC (Cryptococcus neoformans): 1 µg/mL (≈ 1.99 µM)

OC(Cn1cncn1)(Cn1cncn1)c1ccc(F)cc1F [FLUCONAZOLE]
MIC (Nakaseomyces glabratus): 4 µg/mL (≈ 13.1 µM)
MIC (Candida parapsilosis): 0.5 µg/mL (≈ 1.63 µM)
MIC (Candida tropicalis): 2 µg/mL (≈ 6.53 µM)
MIC (Candida albicans [2]): 120 ng/mL (≈ 0.392 µM)
